{"source": "paper PMC8587999", "about": "“Assessment of the Activity of Decoquinate and Its Quinoline-O-Carbamate Derivatives against Toxoplasma gondii In Vitro and in Pregnant Mice Infected with T. gondii Oocysts” (Molecules, 2021)", "key": {"[1]": {"parameters": "method as in PMID 32626086", "details": "cited from earlier work"}, "[2]": {"test_system": "Sarcocystis neurona", "parameters": "method as in PMID 23523012", "details": "cited from earlier work"}, "[3]": {"test_system": "T. gondii oocysts", "parameters": "method as in PMID 8735260", "details": "treatment commencing 10 days prior to infection with T. gondii oocysts; cited from earlier work"}, "[4]": {"test_system": "T. gondii TgShSp1 oocysts", "assay": "DCQ efficacy assessment in pregnant CD1 mice orally infected with TgShSp1 oocysts", "format": "in vivo", "description": "Twenty-nine female and 15 male CD1 mice, all 8 weeks of age, were used. Oestrus-synchronization and mating was carried out as described under Section 4.6. Subsequently, females were distributed randomly to 3 experimental groups: DCQ, DCQ + infection (n = 12); C+, corn oil + infection (n = 12); C-, only corn oil (n = 5). Infection was performed with 100 TgShSp1 oocysts at day 7 post-mating by oral gavage; the C− group received PBS. The treatment with DCQ suspended in corn oil at 10 mg/kg/day for 5 days; that only with corn oil was initiated at 2 days post-infection. At day 18 post-mating, pregnant mice were distributed into single cages and non-pregnant mice were housed together with 3–4 animals per cage. Dams gave birth between day 20–22, and clinical status, litter size, neonatal and postnatal mortality were recorded daily. Four weeks post-partum (p.p.), all mice were euthanized in a chamber by isoflurane/CO2 inhalation. Blood and brain samples were collected. Total IgG was measured in T. gondii infected mice by ELISA [49].\n(§1) Quantification of the cerebral parasite load in non-pregnant mice, dams and pups was carried out with an established real-time PCR method for the detection of T. gondii. The NucleoSpin DNA RapidLyze Kit (Macherey-Nagel, Oensingen, Switzerland) was used for DNA purification according to the standard protocol and DNA concentrations were quantified by the QuantiFluor double-stranded DNA (dsDNA) system (Promega, Madison, WI, USA). Quantitative real-time PCR was performed with the Light Cycler (Roche, Basel, Switzerland), and the parasite load was calculated by including a standard curve of DNA samples from 1000, 100, and 10 T. gondii tachyzoites per run.\n(§2) Graph creation and statistical analysis was performed in GraphPad Prism version 5.0 (GraphPad Software, La Jolla, CA, USA). Cerebral parasite burdens were compared between groups by the non-parametric Kruskal–Wallis test, followed by Mann–Whitney U test. Pup mortality over time was depicted by plotting survival events at each time point in Kaplan–Meier graphs and survival curves were compared by the Log-rank (Mantel–Cox) test."}, "[5]": {"test_system": "liver stage of Plasmodium berghei malaria parasites", "parameters": "method as in doi:10.1038/s42004-018-0062-7", "details": "cited from earlier work"}, "[6]": {"test_system": "T. gondii TgShSp1 oocysts", "assay": "RMB060 efficacy assessment in pregnant CD1 mice orally infected with TgShSp1 oocysts", "format": "in vivo", "description": "Eight-week-old CD1 mice, 29 females and 15 males, were used. After oestrus-synchronization and mating, females were randomly distributed to 3 experimental groups: RMB060, RMB060 + infection (n = 12); C+, corn oil + infection (n = 12); C−, only corn oil (n = 5). Infection was carried out at day 7 post-mating with 100 TgShSp1 oocysts suspended in 100 µL PBS, with the C−group receiving only PBS. Treatments, separation of pregnant and non-pregnant mice, and monitoring were performed as described in Section 4.7. All mice were euthanized 4 weeks p.p. by isoflurane/CO2. Blood and brain samples were collected. Total IgG was measured in T. gondii infected mice by ELISA to see whether drug treatment would have an impact on the humoral immune response.\nas §1, §2"}, "[7]": {"details": "CD1 mice, TgShSp1 oocysts, 10 mg/kg/day oral for 5 days, positive/total adult mice"}, "[8]": {"details": "brain PCR, surviving pups, 10 mg/kg/day oral for 5 days"}, "[9]": {"details": "brain PCR, 10 mg/kg/day oral for 5 days"}, "[10]": {"details": "dead pups/pups born, 10 mg/kg/day oral for 5 days, 10 mg/kg/day"}, "[11]": {"details": "real-time PCR, 4 weeks p.p., non-pregnant mice and dams"}, "[12]": {"details": "serum at end of experiment, RIPC, non-pregnant mice and dams"}}, "note": "Several values for one entry are separate records, joined by “and”; a condition that tells them apart may be missing. Identical values can stand only once."}
{"smiles": "CCCCCCCCCCOc1cc2c(O)c(C(=O)OCC)cnc2cc1OCC", "note": "[DCQ, ethyl 6-decyloxy-7-ethoxy-4-oxo-1H-quinoline-3-carboxylate]", "values": [{"measurement": "aqueous solubility", "setting": "[1]", "result": 0.06, "unit": "µg/mL"}, {"measurement": "Activity against S. neurona schizonts", "setting": "[2]; 10 day treatment at 240 nM", "result": "parasiticidal activity"}, {"measurement": "IC50", "setting": "[2]; read-out: IC50 values for S. neurona merozoites", "result": "0.6 to 1.1", "unit": "nM"}, {"measurement": "Outcome of prophylactic treatment in ewes", "setting": "[3]", "result": "decreased pathological changes in the placental tissue"}, {"measurement": "Vertical transmission", "setting": "[4]; 10 mg/kg/day for 5 days", "result": "did not prevent vertical transmission"}, {"measurement": "Neonatal pup mortality", "setting": "[4]; 10 mg/kg/day for 5 days, C+ group 40%", "result": 70, "unit": "%"}, {"measurement": "No. of Pups/No. of Dams", "setting": "[4]; 10 mg/kg/day oral for 5 days", "result": "92/8"}, {"measurement": "Seropositive for T. gondii", "setting": "[4]; [7]", "result": "11/12"}, {"measurement": "Brain infection detected in adult mice (dams and non-pregnant mice)", "setting": "[4]; PCR, 10 mg/kg/day for 5 days", "result": "11 out of 12"}, {"measurement": "T. gondii Positive Pups", "setting": "[4]; [8]", "result": "25/25"}, {"measurement": "T. gondii Positive Dams", "setting": "[4]; [9]", "result": "8/8"}, {"measurement": "T. gondii Positive Non-Pregnant Mice", "setting": "[4]; [9]", "result": "3/4"}, {"measurement": "Neonatal Mortality", "setting": "[4]; [10]", "result": "64 out of 92 and 64/92"}, {"measurement": "Postnatal Mortality", "setting": "[4]; dead/remaining pups, 1-month follow-up, 10 mg/kg/day oral for 5 days, 10 mg/kg/day", "result": "3 of the 28 and 3/28"}, {"measurement": "Cerebral parasite burden compared to the C+ group", "setting": "[4]; [11]", "result": "No statistically significant differences"}, {"measurement": "T. gondii IgG antibody titers compared to the C+ group", "setting": "[4]; [12]", "result": "no statistically significant differences"}]}
{"smiles": "CCCCCCCCCCOc1cc2c(OC(=O)N3CCN(S(C)(=O)=O)C3=O)c(C(=O)OCC)cnc2cc1OCC", "note": "[RMB060]", "values": [{"measurement": "Activity against the liver stage of Plasmodium berghei", "setting": "[5]", "result": "highly active"}, {"measurement": "Vertical transmission", "setting": "[6]; 10 mg/kg/day for 5 days", "result": "vertical transmission to pups could not be prevented"}, {"measurement": "Postnatal Mortality", "setting": "[6]; 10 mg/kg/day for 5 days, C+ group 9.2%", "result": 3.8, "unit": "%"}, {"measurement": "Neonatal Mortality", "setting": "[6]; 10 mg/kg/day for 5 days, C+ group 23%, non-significant", "result": 16.8, "unit": "%"}, {"measurement": "Surviving pups PCR-positive for T. gondii in the brain", "setting": "[6]; 10 mg/kg/day for 5 days, C+ group 89%", "result": 62, "unit": "%"}, {"measurement": "No. of Pups/No. of Dams", "setting": "[6]; 10 mg/kg/day oral for 5 days", "result": "125/10"}, {"measurement": "Seropositive for T. gondii", "setting": "[6]; [7]", "result": "8/12"}, {"measurement": "Survival curves of pups compared to the C+ group", "setting": "[6]; Kaplan–Meier, Log-rank (Mantel-Cox) test", "result": "No statistically significant differences"}, {"measurement": "Brain infection detected in adult mice (dams and non-pregnant mice)", "setting": "[6]; PCR, 10 mg/kg/day for 5 days", "result": "eight out of 12"}, {"measurement": "T. gondii Positive Pups", "setting": "[6]; [8]", "result": "62/100"}, {"measurement": "T. gondii Positive Dams", "setting": "[6]; [9]", "result": "7/10"}, {"measurement": "T. gondii Positive Non-Pregnant Mice", "setting": "[6]; [9]", "result": "1/2"}, {"measurement": "Neonatal Mortality", "setting": "[6]; [10]", "result": "21 out of 125 and 21/125"}, {"measurement": "Postnatal Mortality", "setting": "[6]; dead/remaining pups, 10 mg/kg/day oral for 5 days", "result": "4/104"}, {"measurement": "Cerebral parasite burden compared to the C+ group", "setting": "[6]; [11]", "result": "No statistically significant differences"}, {"measurement": "T. gondii IgG antibody titers compared to the C+ group", "setting": "[6]; [12]", "result": "no statistically significant differences"}]}
